# In patent US20170065564A1, “BIS-CYCLIC GUANIDINE COMPOUND COMPOSITIONS, METHODS OF USE AND TREATMENT THEREOF” (University of South Florida, priority 2014, published 2017):
# Legend:
# Enterobacter cloacae = assay: MIC micro broth dilution assay; assay type: cell-based; conditions: for MIC: Enterobacter cloacae
# Procedure, shortened: (§1)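 Strains were multidrug-resistant clinical isolates grown in LB (Gram-negative) or TSB (Gram-positive), diluted 1:1,000 before compound addition.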
# Enterococcus faecium = assay: MIC micro broth dilution assay; assay type: cell-based; conditions: for MIC: Enterococcus faecium
# Procedure, shortened: as §1
# Klebsiella pneumoniae = assay: MIC micro broth dilution assay; assay type: cell-based; conditions: for MIC: Klebsiella pneumoniae
# Procedure, shortened: as §1
# Pseudomonas aeruginosa = assay: MIC micro broth dilution assay; assay type: cell-based; conditions: for MIC: Pseudomonas aeruginosa
# Description: For this study we used a representative panel of multi-drug resistant clinical ESKAPE pathogen isolates (Supplemental Table S6).^42 43 3a, 44 45 Gram-positive organisms were grown in tryptic soy broth media (TSB), whilst Gram-negative organisms were grown in lysogeny Broth (LB), as described by us previously. ^43 MIC and MBC determination assays.
# Broth cultures of ESKAPE strains were grown overnight before being diluted 1 in 1,000 in fresh media. Sterile 96-well plates were loaded with culture and compounds (in DMF) were added at decreasing concentrations to equal a total volume of 200 μl per well. Care was taken to not add more than 2.0% DMF to any well. Plates were then incubated at 37° C., and MICs determined after 24 hours by visual inspection for a lack of turbidity in wells. All assays were performed in triplicate with identical results obtained. For both the scaffold ranking and positional scanning samples, relative broad-spectrum activity was determined via stacked scores: […]
# ESKAPE pathogens = assay: MIC micro broth dilution assay, statements and stacked scores over all ESKAPE pathogens; assay type: cell-based; conditions: letters E,S,K,A,P,E = ESKAPE pathogens, — = none
# Procedure, shortened: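 Overnight cultures of multidrug-resistant clinical isolates, diluted 1 in 1,000 (Gram-positives in TSB, Gram-negatives in LB), were exposed to decreasing compound concentrations in DMF (≤2.0%) at 37° C. MIC was read visually as no turbidity after 24 hours, in triplicate. Broad-spectrum activity was ranked by stacked scores.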
# Acinetobacter baumannii = assay: MIC micro broth dilution assay; assay type: cell-based; conditions: for MIC: Acinetobacter baumannii
# Procedure, shortened: as §1
# Staphylococcus aureus = assay: MIC micro broth dilution assay; assay type: cell-based; conditions: for MIC: Staphylococcus aureus
# Procedure, shortened: as §1
# K. pneumoniae = assay: Resistance serial passage assay; assay type: cell-based, Klebsiella pneumoniae; conditions: 8 passages, concentration doubled each day
# Description: ESKAPE pathogens were grown overnight in liquid media at 37° C. These cultures were then diluted 1:100 in fresh media, and seeded into a 96-well plate. Lead bis-cyclic guanidines or control agents were added to respective wells at half MIC concentrations. Plates were then incubated for 24 hours at 37° C., with bacteria removed from these cultures on the following day, to inoculate fresh media (1:100 dilution) containing compounds at a 2-fold higher concentrations. These were then grown overnight, and the procedure repeated for a total of eight days. […] Each experiment was performed in triplicate, yielding identical results.
compound,measurement,setting,value
CCCCCCCN1C(=N)N(CCCC[C@H]2CNC(=N)N2CCc2cccc(C(F)(F)F)c2)C[C@@H]1CC1CCCCC1 [Compound 7],"stacked score activity, 100/MIC, E",Enterobacter cloacae; E. cloacae,20
same,MIC,Enterobacter cloacae; E. cloacae isolate 1404,2 µM
same,MIC,Enterobacter cloacae; E. cloacae isolate 1405,2 µM
same,MIC,Enterobacter cloacae; E. cloacae isolate 1430,2 µM
same,MIC,Enterobacter cloacae; E. cloacae isolate 1431,2 µM
same,MIC,Enterobacter cloacae; E. cloacae isolate 1445,2 µM
same,MIC,Enterobacter cloacae; E. cloacae isolate 1446,5 µM
same,MIC,Enterobacter cloacae; E. cloacae isolate 1447,2 µM
same,MIC,Enterobacter cloacae; E. cloacae isolate 1448,2 µM
same,MIC,Enterobacter cloacae; E. cloacae isolate 1454,2 µM
same,MIC,Enterobacter cloacae; E. cloacae isolate 1455,2 µM
same,MIC,"Enterobacter cloacae; purified compound, Table 1",1.52 µM
same,concentration inhibiting 90% of isolates,Enterobacter cloacae; panel of E. cloacae clinical isolates,2 µM
same,"stacked score activity, 100/MIC, E",Enterococcus faecium; E. faecium,33
same,MIC,Enterococcus faecium; E. faecium isolate 1406,2 µM
same,MIC,Enterococcus faecium; E. faecium isolate 1407,2 µM
same,MIC,Enterococcus faecium; E. faecium isolate 1432,2 µM
same,MIC,Enterococcus faecium; E. faecium isolate 1438,2 µM
same,MIC,Enterococcus faecium; E. faecium isolate 1439,2 µM
same,MIC,Enterococcus faecium; E. faecium isolate 1443,2 µM
same,MIC,Enterococcus faecium; E. faecium isolate 1444,2 µM
same,MIC,Enterococcus faecium; E. faecium isolate 1449,2 µM
same,MIC,Enterococcus faecium; E. faecium isolate 1450,2 µM
same,MIC,Enterococcus faecium; E. faecium isolate 1451,2 µM
same,MIC,"Enterococcus faecium; purified compound, Table 1",1.52 µM
same,"stacked score activity, 100/MIC, K",Klebsiella pneumoniae; K. pneumoniae,20
same,MIC,Klebsiella pneumoniae; K. pneumoniae isolate 1408,2 µM
same,MIC,Klebsiella pneumoniae; K. pneumoniae isolate 1409,3 µM
same,MIC,Klebsiella pneumoniae; K. pneumoniae isolate 1410,2 µM
same,MIC,Klebsiella pneumoniae; K. pneumoniae isolate 1411,2 µM
same,MIC,Klebsiella pneumoniae; K. pneumoniae isolate 1412,2 µM
same,MIC,Klebsiella pneumoniae; K. pneumoniae isolate 1413,2 µM
same,MIC,Klebsiella pneumoniae; K. pneumoniae isolate 1433,2 µM
same,MIC,Klebsiella pneumoniae; K. pneumoniae isolate 1434,5 µM
same,MIC,Klebsiella pneumoniae; K. pneumoniae isolate 1440,3 µM
same,MIC,Klebsiella pneumoniae; K. pneumoniae isolate 1441,2 µM
same,MIC,"Klebsiella pneumoniae; purified compound, Table 1",1.52 µM
same,concentration inhibiting 90% of isolates,Klebsiella pneumoniae; panel of K. pneumoniae clinical isolates,5 µM
same,MIC,Pseudomonas aeruginosa; P. aeruginosa isolate 1414,3 µM
same,MIC,Pseudomonas aeruginosa; P. aeruginosa isolate 1415,3 µM
same,MIC,Pseudomonas aeruginosa; P. aeruginosa isolate 1416,2 µM
same,MIC,Pseudomonas aeruginosa; P. aeruginosa isolate 1417,3 µM
same,MIC,Pseudomonas aeruginosa; P. aeruginosa isolate 1418,7 µM
same,MIC,Pseudomonas aeruginosa; P. aeruginosa isolate 1419,3 µM
same,MIC,Pseudomonas aeruginosa; P. aeruginosa isolate 1420,5 µM
same,MIC,Pseudomonas aeruginosa; P. aeruginosa isolate 1421,2 µM
same,MIC,Pseudomonas aeruginosa; P. aeruginosa isolate 1422,5 µM
same,MIC,Pseudomonas aeruginosa; P. aeruginosa isolate 1423,2 µM
same,MIC,"Pseudomonas aeruginosa; purified compound, Table 1",1.52 µM
same,concentration inhibiting 90% of isolates,Pseudomonas aeruginosa; panel of P. aeruginosa clinical isolates,10 µM
same,pathogens against which the compound showed activity at 4 ug/ml,ESKAPE pathogens; dose 4 ug/ml,ESAP
same,pathogens against which the compound showed activity at 5 ug/ml,ESKAPE pathogens; dose 5 ug/ml,ESKAPE
same,pathogens against which the compound showed activity at 10 ug/ml,ESKAPE pathogens; dose 10 ug/ml,ESKAPE
same,pathogens against which the compound showed activity at 25 ug/ml,ESKAPE pathogens; dose 25 ug/ml,ESKAPE
same,"stacked score activity, 100/MIC, A",Acinetobacter baumannii; A. baumannii,25
same,MIC,Acinetobacter baumannii; A. baumannii isolate 1403,2 µM
same,MIC,Acinetobacter baumannii; A. baumannii isolate 1643,2 µM
same,MIC,Acinetobacter baumannii; A. baumannii isolate 1644,2 µM
same,MIC,Acinetobacter baumannii; A. baumannii isolate 1647,2 µM
same,MIC,Acinetobacter baumannii; A. baumannii isolate 1648,2 µM
same,MIC,Acinetobacter baumannii; A. baumannii isolate 1649,2 µM
same,MIC,Acinetobacter baumannii; A. baumannii isolate 1650,2 µM
same,MIC,Acinetobacter baumannii; A. baumannii isolate 1651,2 µM
same,MIC,Acinetobacter baumannii; A. baumannii isolate 1653,2 µM
same,MIC,Acinetobacter baumannii; A. baumannii isolate 1654,2 µM
same,MIC,"Acinetobacter baumannii; purified compound, Table 1",1.52 µM
same,"stacked score activity, 100/MIC, S",Staphylococcus aureus; S. aureus,33
same,MIC,Staphylococcus aureus; S. aureus isolate 542,2 µM
same,MIC,Staphylococcus aureus; S. aureus isolate 626,2 µM
same,MIC,Staphylococcus aureus; S. aureus isolate 635,2 µM
same,MIC,Staphylococcus aureus; S. aureus isolate 648,2 µM
same,MIC,Staphylococcus aureus; S. aureus isolate 690,2 µM
same,MIC,Staphylococcus aureus; S. aureus isolate 693,2 µM
same,MIC,Staphylococcus aureus; S. aureus isolate 715,2 µM
same,MIC,Staphylococcus aureus; S. aureus isolate 728,2 µM
same,MIC,Staphylococcus aureus; S. aureus isolate 834,2 µM
same,MIC,Staphylococcus aureus; S. aureus isolate 1043,2 µM
same,MIC,Staphylococcus aureus; S. aureus isolate 1049,2 µM
same,MIC,"Staphylococcus aureus; purified compound, Table 1",1.52 µM
same,increase in MIC after serial passage,K. pneumoniae,8 fold
